Target: T1, recombinant human mPGES-1 (Homo sapiens, UniProt O14684)
T1 sequence (O14684 1-152): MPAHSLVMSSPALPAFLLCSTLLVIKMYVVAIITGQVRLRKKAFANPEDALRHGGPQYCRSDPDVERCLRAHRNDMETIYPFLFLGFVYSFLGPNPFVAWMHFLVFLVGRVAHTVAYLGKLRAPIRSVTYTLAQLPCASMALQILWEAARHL
Test: Assay A: mPGES-1 enzyme assay (HTRF detection of PGE2)
Type: biochemical
Settings: biological assay A (compounds 1-41, 54, 55, 62, 73); PGE2 formation from PGH2, HTRF; read-out: mPGES-1 inhibitory effect IC50
Excerpt: Assay A: mPGES-1 Enzyme Assay
The basis of the assay used is to measure the inhibition of microsomal prostaglandin E2 synthase-1 (mPGES-1) dependent prostaglandin (PG) E2 formation from PGH2 by different compounds. Thus, the formation of PGE2 is used as signal and a lowering of this signal can be interpreted as inhibition of mPGES-1. Similar assays to measure inhibition of mPGES-1 have previously been described in the literature.
• Glutathione (Sigma, G-4251) • Freeze culture in Rosetta E coli expression strain. • LB growth media with Ampillicillin (Amp) final concentration in culture 50 μg/mL • Chloroamphenicol stock 34 mg/mL (chloro) final concentration in culture 34 μg/mL • Sterile growth flasks for 500 mL-1 liter cultures • 0.1 M KPi buffer pH 7.4 • 9.25% HCl • PGH2 (0.25 mM) • Fe (II) Cl2 tetrahydrate, 99% (Sigma, 220229) • 384-well plate with compounds • 96-well plate, polypropylene (Thermo fast 96 skirted VWR) • 384-well plate polypropylene PCR plate (Greiner 785201) • Greiner 384-well plate pp (In vitro cat. no. 781280) • Adhesive sealing film for 96-well plates (Sigma-Aldrich) • Aluminium foil (PCR foil, 310-0030-127-471 from Labora) • PBS (GIBCO 14040) • Prostaglandin E2 Assay (Cisbio, cat. no. 62P2APEC) • Biomek FX robot (Beckman Coulter) • Biomek NX robot (Beckman Coulter) • Multidrop; micro or combi (ThermoLabsystems) • Plate reader: Safire2 (Tecan)
Microsomes from Rosetta E. coli bacteria expressing recombinant human mPGES-1 can be derived as described below:
Inoculate 5 mL LB with Amp and Chloro with bacteria from freeze culture. Incubate over night at 37° C. with 200 rpm. Thereafter, inoculate 500-800 mL LB containing Amp and Chloro with the 5 mL on culture and grow to OD640 of 0.6-0.8. Chill the culture to +4° C. before induction. Induce the culture with IPTG at a final concentration of 400 μM. Express the protein at room temp 18-23° C. with 200 rpm shaking over night.
The following steps can be performed on the following day: • 1. Spin down the cells in 250 mL centrifuge flasks for 15 min at 7000 rpm • 2. Dissolve the pellet from 250 mL culture in 12.5 mL homogenization buffer • 3. Disintegrate the cells by sonication, 4×10 seconds at 35% amplitude • 4. Add 2.5 mL MgCl2 (100 mM) and DNase 12.5 μL (0.8 mg/mL) and incubate on ice for 30 min • 5. Spin down the bacteria debris and save the supernatant, 7000 rpm for 15 min • 6. Isolate the protein containing membranes in the supernatant by ultracentrifugation 45000×g for 1 hour. • 7. Discard the supernatant and dissolve the pellet in 20 mM KPi buffer and aliquot the enzyme and store aliquots at −80° C.
Before each experiment is performed an aliquot of the enzyme is thawed and it can then be dissolved in 0.1 M KPi pH 7.4 buffer containing 2.5 mM GSH. 50 μL of this enzyme solution is subsequently dispensed in a 384-well plate at room temperature. 0.5 μL of the inhibitor dissolved in DMSO is thereafter added to each well and incubated for 25 minutes at room temperature. Subsequently, 2 μL of PGH2 dissolved in an appropriate solvent is added to each well and after one minute at room temperature, the acidified stop solution containing FeCl2 is added. 4 μL of the total volume is transferred to a separate plate and diluted 750-fold in two separate steps before quantification of PGE2.
In order to quantitate the amount of PGE2 that has been formed, a homogenous time resolved fluorescent (HTRF) detection of PGE2 can be performed by the use of a commercially available kit from CisBio essentially according to the manufacturer's protocol. […]

SMILES | IC50
CC(C)(C)C(=O)NCc1ccc(Cl)c(C(=O)Nc2ccc(OCC(F)(F)F)c(C(=O)N[C@H]3CC[C@H](C(F)(F)F)CC3)c2)c1 [Example 11] | 4 nM
COc1ccc(NC(=O)c2cc(CNC(=O)c3c(F)cccc3C(F)(F)F)ccc2Cl)cc1C(=O)Nc1ccc(Br)cc1 [Example 26] | 3 nM
CC(C)(C)C(=O)NCc1ccc(Cl)c(C(=O)Nc2cc(F)c(F)c(C(=O)Nc3ccc(Br)cc3)c2)c1 [Example 54, N-[3,4-Difluoro-5-(4-bromophenyl)aminocarbonyl-phenyl]-2-chloro-5-(tert-butylcarbonylamino)methyl-benzamide] | 9 nM
CNC(=O)c1cc(NC(=O)c2cc(CNC(=O)C3(C)CCCCC3)ccc2C)ccc1Cl [Example 1, N-(4-Chloro-3-methylaminocarbonyl-phenyl)-2-methyl-5-[(1-methylcyclohexylcarbonylamino)methyl]-benzamide] | ~1600 nM
COc1ccc(NC(=O)c2cc(CNC(=O)C(C)(C)C)ccc2Cl)cc1C(=O)NC1CC1 [Example 35] | ~500 nM
CC(C)(C(=O)NCc1ccc(Cl)c(C(=O)Nc2cnc(OCC(F)F)c(C(=O)Nc3ccc(Br)cc3)c2)c1)C(F)(F)F [Example 73, N-[2-(2,2-Difluoroethyl)oxy-3-(4-bromophenyl)aminocarbonyl-pyridin-5-yl]-2-chloro-5-[(2,2,2-trifluoro-1,1-dimethyl-ethyl)carbonylamino]methyl-benzamide] | 7 nM
COc1ccc(NC(=O)c2cc(CNS(=O)(=O)C3CC3)ccc2Cl)cc1C(=O)Nc1ccc(Br)cc1 [Example 36, N-[4-Methoxy-3-(4-bromophenyl)aminocarbonyl-phenyl]-2-chloro-5-cyclopropylsulphonylaminomethyl-benzamide] | 6 nM
CC(C)(C)C(=O)NCc1ccc(Cl)c(C(=O)Nc2ccc(OCC(F)F)c(C(=O)NCC3CCC3)c2)c1 [Example 12] | 3 nM
Cc1ccc(NC(=O)c2cc(CNC(=O)C(C)(C)C)ccc2Cl)cc1C(=O)Nc1ccc(Br)cc1 [Example 55, N-[4-Methyl-3-(4-bromophenyl)aminocarbonyl-phenyl]-2-chloro-5-(tert-butylcarbonylamino)methyl-benzamide] | 59 nM
CC(C)(C)C(=O)NCc1ccc(Cl)c(C(=O)Nc2ccc(OCC(F)F)c(C(=O)Nc3ccc(F)c(Cl)c3)c2)c1 [Example 7, N-[4-(2,2-Difluoroethyl)oxy-3-(4-fluoro-3-chloro-phenyl)aminocarbonyl-phenyl]-2-chloro-5-(tert-butylcarbonylamino)methyl-benzamide] | 4 nM
CC(C)(C)C(=O)NCc1ccc(Cl)c(C(=O)Nc2ccc(F)c(C(=O)Nc3ccc(Br)cc3)c2)c1 [Example 2, N-[4-Fluoro-3-(4-bromophenyl)aminocarbonyl-phenyl]-2-chloro-5-(tert-butylcarbonylamino)methyl-benzamide] | 4 nM
COc1ccc(NC(=O)c2cc(CNC(=O)C(C)(C)C(F)(F)F)ccc2Cl)cc1C(=O)Nc1ccc(Br)cc1 [Example 9, N-[4-Methoxy-3-(4-bromophenyl)aminocarbonyl-phenyl]-2-chloro-5-(2,2,2-trifluoro-1,1-dimethyl-ethyl)carbonylaminomethyl-benzamide] | 2 nM
CC(C)(C)C(=O)NCc1ccc(Cl)c(C(=O)Nc2ccc(OCC3CC3)c(C(=O)N[C@H]3CC[C@H](C(F)(F)F)CC3)c2)c1 [Example 38, N-[4-(Cyclopropylmethyloxy)-3-[trans-(4-trifluoromethyl-cyclohexyl)amino]carbonyl-phenyl]-2-chloro-5-(tert-butylcarbonylamino)methyl-benzamide] | 4 nM

Results, then the compound that gave them:

IC50 | SMILES
2 nM | CC(C)(C)C(=O)NCc1ccc(Cl)c(C(=O)Nc2ccc(OCC(F)F)c(C(=O)Nc3ccc(Br)cc3)c2)c1 [Example 15]
2 nM | COc1ccc(NC(=O)c2cc(CNC(=O)C3(C)CCCCC3)ccc2Cl)cc1C(=O)Nc1ccc(Br)cc1 [Example 27]
2 nM | COc1ccc(NC(=O)c2cc(CNC(=O)C3CCCCC3C)ccc2Cl)cc1C(=O)Nc1ccc(Br)cc1 (stereo not drawn) [Example 29]
1 nM | COc1ccc(NC(=O)c2cc(CNC(=O)C(C)(F)F)ccc2Cl)cc1C(=O)Nc1ccc(Br)cc1 [Example 30]
2 nM | CC(C)(C)C(=O)NCc1ccc(Cl)c(C(=O)Nc2cnc(OCC(F)F)c(C(=O)Nc3ccc(Br)cc3)c2)c1 [Example 6, N-[2-(2,2-Difluoroethyl)oxy-3-(4-bromophenyl)aminocarbonyl-pyridin-5-yl]-2-chloro-5-(tert-butylcarbonylamino)methyl-benzamide]
2 nM | CC(C)(C)C(=O)NCc1ccc(Cl)c(C(=O)Nc2ccc(OCC(F)F)c(C(=O)N[C@H]3CC[C@H](C(F)(F)F)CC3)c2)c1 [Example 5, N-[4-(2,2-Difluoroethyl)oxy-3-[trans-(4-trifluoromethyl-cyclohexyl)amino]carbonyl-phenyl]-2-chloro-5-(tert-butylcarbonylamino)methyl-benzamide]
2 nM | COc1ccc(NC(=O)c2cc(CNC(=O)C(C)(N)C(F)(F)F)ccc2Cl)cc1C(=O)Nc1ccc(Br)cc1 (stereo not drawn) [Example 33]
1 nM | COc1ccc(NC(=O)c2cc(CNC(=O)c3c(F)cccc3Cl)ccc2Cl)cc1C(=O)Nc1ccc(Br)cc1 [Example 25]

— patent publication US8951999B2, “Compounds” (Orexo AB, priority 2009, dated 2015)
